Reference: PMC8307938, “The Lysozyme Inhibitor Thionine Acetate Is Also an Inhibitor of the Soluble Lytic Transglycosylase Slt35 from Escherichia coli” (Molecules, 2021)

Tests used:
[1] = target: T1, Slt35 (Escherichia coli, UniProt P41052); experiment: intrinsic fluorescence quenching titration (also turbidimetric inhibition assay, IC50 […]); assay type: binding
T1 construct: gene mltB; N-terminal His-tag
T1 sequence (P41052 19-361): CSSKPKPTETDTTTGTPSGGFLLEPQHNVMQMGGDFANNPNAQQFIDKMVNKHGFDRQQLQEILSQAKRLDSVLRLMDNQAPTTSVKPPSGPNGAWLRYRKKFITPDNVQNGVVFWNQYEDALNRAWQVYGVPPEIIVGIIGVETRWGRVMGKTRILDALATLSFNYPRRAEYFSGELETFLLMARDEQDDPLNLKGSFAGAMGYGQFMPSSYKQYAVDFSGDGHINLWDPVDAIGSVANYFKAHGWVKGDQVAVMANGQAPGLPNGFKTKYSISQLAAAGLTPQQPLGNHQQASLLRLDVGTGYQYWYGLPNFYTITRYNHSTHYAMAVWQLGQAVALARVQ

[2] = target: T2, hen egg white lysozyme (Gallus gallus, UniProt P00698); experiment: as above; assay type: binding
T2 construct: gene LYZ
T2 sequence (P00698 19-147): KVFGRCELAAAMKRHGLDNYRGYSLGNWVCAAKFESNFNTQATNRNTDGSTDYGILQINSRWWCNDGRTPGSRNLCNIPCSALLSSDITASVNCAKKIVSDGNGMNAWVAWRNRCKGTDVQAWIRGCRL

[3] = target: Asp52 (UniProt position 70, TDGSTDYGILQ); experiment: NMR; settings: not stated (presumably free, folded enzyme); cited from earlier work
[4] = target: Glu35 (UniProt position 53, CAAKFESNFNT); experiment: NMR; settings: not stated (presumably free, folded enzyme); cited from earlier work

Molecule	Kd [1]	Kd [2]	pKa [3]	pKa [4]
Nc1ccc2nc3ccc(N)cc3[s+]c2c1 [thionine acetate]	17.1 ± 1 µM	18.6 ± 1.2 µM		
Hen egg white lysozyme (lysozyme C) (Gallus gallus)			3.7	6.2
